# Literature values in patent publication US20100303937A1, “NOVEL COMPOSITION TO INCREASE TESTOSTERONE LEVELS” (priority 2009, published 2010).
# Details: humans; prior art U.S. Pat. No. 5,880,117
smiles,measurement,value
"C[C@]12CC[C@H]3[C@@H](CCC4=C[C@@H](O)CC[C@@]43C)[C@@H]1CC[C@@H]2O [4-androstene-3β, 17β-diol]",time within which concentration peaks after administration,≤ 90 min
